# Measured values: patent EP3502109A1, “TRIAZOLE-PHENYL-THIAZOLE HETEROCYCLES AS INNOVATIVE INHIBITORS OF TRYPANOTHIONE REDUCTASE AND THEIR USE AS LEISHMANICIDES” (Consejo Superior De Investigaciones Científicas, priority 2017, dated 2019)
# Structures can show the parent of a compound that is named as a salt. Where two headings read alike, the source gives them in different places.
# Assays:
# recombinant Li-TryR = recombinant Li-TryR (Leishmania infantum, UniProt A4HSF7); assay: Li-TryR oxidoreductase activity assay; format: biochemical
# Method: Oxidoreductase activity was determined according to the method described by Hamilton et al. (Biochem. J., 2003, 369, 529-537). Briefly, reactions were carried out at 26 °C (250 µL) of HEPES pH 8.0 (40 mM) buffer containing EDTA (1 mM), NADPH (150 µM), NADP+ (30 µM), DTNB (25 µM), T[S]2 (1 µM), glicerol (0.02%), DMSO (1.5%) and recombinant Li-TryR (7 nM). […] Enzyme activity was monitored by the increase in absorbance at 412 nm for 1 h at 26 °C in a VERSAmax microplate reader (Molecular Devices, California, USA). All the assays were conducted in triplicate in at least three independent experiments. Data were analyzed using a non-linear regression model with the Grafit6 software (Erithacus, Horley, Surrey, UK).
# Li-TryR dimeric form = Li-TryR dimeric form (Leishmania infantum, UniProt A4HSF7); assay: Dimer quantitation assay (ELISA), Li-TryR monomer displacement; format: binding
# Method: The stability of the Li-TryR dimeric form in the presence of the compounds was evaluated using an Enzyme-Linked ImmunoSorbent Assay (ELISA). Briefly a dual (HIS/FLAG) tagged Li-TryR (400 nM) was incubated in a dimerization buffer (200 µL 300 mM NaCl, 50 mM Tris pH 8.0) for 16 h at 37 °C with agitation and in a humid atmosphere in the presence of different peptide concentration (10 to 90 µM) in 1.5ml tubes. Next, the tubes were centrifuged at 30000 rcf and supernatants were disposed in anti-flag coated 96 well plates and incubated 30 min, at 37°C with gentle shaking. Then the plates were washed ten times with TTBS (Tween 0.1%, 2 mM Tris, 138 mM NaCl 138 pH 7.6) and incubated with diluted monoclonal α-HIS HRP conjugated antibody (200 µL, Abcam, Cambridge, UK) in BSA (5%) in TTBS for 1 h at room temperature. The plates were washed once again as previously described and 1,2-phenylenediamine dihydrochloride (OPD) substrate (100 µL, Dako, Glostrup, Denmark) prepared according to manufacturer's instructions was added. The enzymatic reaction was stopped after 10 min with H2SO4 (100 µL, 0.5 M) and the absorbances were measured at 490 nm in a VERSAmax microplate reader (Molecular Devices, California, USA). All the assays were conducted in triplicate in at least three independent experiments. Data were analyzed using a non-linear regression model with the Grafit6 software (Erithacus, Horley, Surrey, UK). Table 1. IC50 ± SEM values for target compounds of formula I-A and I-B in the oxidoreductase activity assays and in the Li-TryR monomer displacement
# [1] = test system: L. infantum promastigotes; assay: Leishmanicidal activity on promastigotes (PI exclusion, flow cytometry); format: cell-based; conditions: Leishmania infantum, 24 h
# Method: L. infantum promastigotes (MCAN/ES/ 89/IPZ229/1/89) were grown in RPMI-1640 medium (Sigma-Aldrich, St. Louis, MO, USA) supplemented with 10% heat-inactivated fetal calf serum (FCS), antibiotics, and 25 mm HEPES (pH 7.2) at 26 °C.
# (§1) Drug treatment of amastigotes was performed during the logarithmic growth phase at a concentration of 1×10^6 parasites/mL at 37 °C for 24 h. Drug treatment of promastigotes was performed during the logarithmic growth phase at a concentration of 2×10^6 parasites/mL at 26 °C for 24 h. The percentage of living cells was evaluated by flow cytometry by the propidium iodide (PI) exclusion method.^17 Drug concentrations ranged from 0.2 µM to 25 µM.
# HepG2 cells = assay: Cytotoxicity assay, HepG2 (crystal violet); format: cell-based; conditions: Homo sapiens, HepG2, 24 h
# Method: (§2) Human THP-1 monocytic cells were seeded at 1.2 x 10^5 cells/ml in 24-multidish plates (Nunc, Roskilde, Denmark) and differentiated to macrophages for 24 h in 1 ml of RPMI 1640 medium containing 10 ng/ml of phorbol 12-myristate 13-acetate (PMA) (Sigma-Aldrich, St. Louis, MO). Human HepG2 cells were seeded at 8 x 10^5 cells/ml in 24-multidish plates (Nunc, Roskilde, Denmark). After 24 h of drug treatment, both cell lines were washed with PBS and stained with violet crystal solution (0.2% in 2% ethanol) in for 10 min. at room temperature. After dye removal, cells were washed twice with water. Once dried, the wells were treated with 1% SDS for 30 min and the absorbance at 570nm was monitored in a plate reader. Table 2. EC50± SEM values for the compounds of formula I-A and I-B on L. infantum promastigotes, extracellular and intracellular amastigotes and cytotoxic activity in macrophage-differentiated THP-1 monocytes and HepG2 cell lines
# [2] = test system: L. infantum axenic amastigotes; assay: Leishmanicidal activity on axenic amastigotes (PI exclusion, flow cytometry); format: cell-based; conditions: Leishmania infantum, 24 h
# Method: L. infantum axenic amastigotes were grown in M199 (Invitrogen, Leiden, The Netherlands) medium supplemented with 10% heat inactivated FCS, 1 g/L β-alanine, 100 mg/L L-asparagine, 200 mg/L sacarose, 50 mg/L sodium pyruvate, 320 mg/L malic acid, 40 mg/L fumaric acid, 70 mg/L succinic acid, 200 mg/L α-ketoglutaric acid, 300 mg/L citric acid, 1.1 g/L sodium bicarbonate, 5 g/L MES, 0.4 mg/L hemin, 10 mg/L gentamicine pH 5.4 at 37 °C. THP-1 cells were grown in RPMI-1640 medium (Gibco, Leiden, The Netherlands) supplemented with 10% heat inactivated FCS, antibiotics, 1 mM HEPES, 2 mM glutamine and 1 mM sodium pyruvate, pH 7.2 at 37 °C and 5% CO2.
# as §1
# [3] = test system: macrophage-differentiated THP-1 monocytes; assay: Cytotoxicity assay, macrophage-differentiated THP-1 (crystal violet); format: cell-based; conditions: Homo sapiens, THP-1, 24 h; read-out: EC50 (µM) THP-1 dif
# Method: as §2
# Li-TryR dimeric form, sequence (A4HSF7 entry or part of it): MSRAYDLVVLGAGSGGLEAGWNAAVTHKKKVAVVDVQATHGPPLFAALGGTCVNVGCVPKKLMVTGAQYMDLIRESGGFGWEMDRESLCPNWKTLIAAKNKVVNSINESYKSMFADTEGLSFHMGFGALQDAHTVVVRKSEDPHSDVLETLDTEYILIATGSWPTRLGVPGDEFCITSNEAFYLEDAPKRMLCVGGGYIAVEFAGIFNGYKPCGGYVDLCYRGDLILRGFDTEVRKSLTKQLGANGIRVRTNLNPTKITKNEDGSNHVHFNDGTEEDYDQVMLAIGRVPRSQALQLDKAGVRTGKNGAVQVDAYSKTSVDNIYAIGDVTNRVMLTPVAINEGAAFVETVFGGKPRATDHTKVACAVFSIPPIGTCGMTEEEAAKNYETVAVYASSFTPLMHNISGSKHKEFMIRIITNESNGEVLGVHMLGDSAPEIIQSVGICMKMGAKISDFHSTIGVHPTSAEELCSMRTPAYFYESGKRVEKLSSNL
# recombinant Li-TryR, sequence (A4HSF7 entry or part of it): as above
Compound,IC50 (recombinant Li-TryR; read-out: IC50 act) [µM],IC50 (Li-TryR dimeric form; read-out: IC50 dim) [µM],also measured
"NCCCc1cn(-c2ccc(-c3nc(CCc4ccccc4)cs3)c(OCCN3CCNC3=O)c2)nn1 [Compound 8n, 1-(2-(5-(4-(3-aminopropyl)-1H-1,2,3-triazol-1-yl)-2-(4-phenethylthiazol-2-yl)phenoxy)ethyl)imidazolidin-2-one 2,2,2 trifluoroacetate]",41.2 ± 8.48,> 75,
"CC[n+]1nn(-c2ccc(-c3nc(CCc4ccc(-c5ccccc5)cc4)cs3)c(OCCN3CCNC3=O)c2)cc1CCCCN [Compound 10f, 1-(4-(4-(2-([1,1'-Biphenyl]-4-yl)ethyl)thiazol-2-yl)-3-(2-(2-oxoimidazolidin-1-yl)ethoxy)phenyl)-4-(4-ammoniobutyl)-3-ethyl-1H-1,2,3-triazol-3-ium 2,2,2-trifluoroacetate trifluoromethanesulfonate]",,,IC50 (recombinant Li-TryR): 3.88 ± 0.55 µM; EC50 [1]: 6.03 ± 0.49 µM; EC50 (HepG2 cells): 69.9 ± 2.97 µM; EC50 [2]: 15.5 ± 0.7 µM; IC50 (Li-TryR dimeric form): 87.06 ± 0.1 µM; EC50 [3]: 19.9 ± 1.1 µM
"C[n+]1nn(-c2ccc(-c3nc(-c4ccccc4)c(-c4ccccc4)s3)c(OCCN3CCNC3=O)c2)cc1CCCCN [Compound 10l, 4-(4-Ammoniobutyl)-1-(4-(4,5-diphenylthiazol-2-yl)-3-(2-(2-oxoimidazolidin-1-yl)ethoxy)phenyl)-3-methyl-1H-1,2,3-triazol-3-ium 2,2,2-trifluoroacetate trifluoromethanesulfonate]",9.31 ± 0.92,> 75,
"C[n+]1nn(-c2ccc(-c3nc(-c4ccccc4)cs3)c(OCCN3CCNC3=O)c2)cc1CCCCN [Compound 10a, 4-(4-Ammoniobutyl)-3-methyl-1-(3-(2-(2-oxoimidazolidin-1-yl)ethoxy)-4-(4-phenylthiazol-2-yl)phenyl)-1H-1,2,3-triazol-3-ium 2,2,2-trifluoroacetate trifluoromethanesulfonate]",22.8 ± 0.98,> 75,
"C[n+]1nn(-c2ccc(-c3nc(CCc4ccccc4)cs3)c(OCCN3CCNC3=O)c2)cc1CCCN [Compound 10i, 4-(3-Ammoniopropyl)-3-methyl-1-(3-(2-(2-oxoimidazolidin-1-yl)ethoxy)-4-(4-phenethylthiazol-2-yl)phenyl)-1H-1,2,3-triazol-3-ium 2,2,2-trifluoroacetate trifluoromethanesulfonate]",21.5 ± 2.87,> 75,
"NCCCCc1cn(-c2ccc(-c3nc(CCc4ccc(-c5ccccc5)cc4)cs3)c(OCCN3CCNC3=O)c2)nn1 [Compound 8h, 1-(2-(2-(4-(2-([1,1'-Biphenyl]-4-yl)ethyl)thiazol-2-yl)-5-(4-(4-aminobutyl)-1H-1,2,3-triazol-1-yl)phenoxy)ethyl)imidazolidin-2-one 2,2,2 trifluoroacetate]",,,IC50 (recombinant Li-TryR): 11.6 ± 2.05 µM; EC50 [1]: 5.44 ± 0.44 µM; EC50 (HepG2 cells): 43.1 ± 2.65 µM; EC50 [2]: 13.9 ± 0.93 µM; IC50 (Li-TryR dimeric form): 5.94 ± 0.99 µM; EC50 [3]: 45.7 ± 0.6 µM
"C[n+]1nn(-c2ccc(-c3nc(CCc4ccc(-c5ccccc5)cc4)cs3)c(OCCN3CCNC3=O)c2)cc1CCCN [Compound 10j, 1-(4-(4-(2-([1,1'-Biphenyl]-4-yl)ethyl)thiazol-2-yl)-3-(2-(2-oxoimidazolidin-1-yl)ethoxy)phenyl)-4-(3-ammoniopropyl)-3-methyl-1H-1,2,3-triazol-3-ium 2,2,2-trifluoroacetate trifluoromethanesulfonate]",6.99 ± 0.59,30.2 ± 3.47,
"C[n+]1nn(-c2ccc(-c3nc(CCc4ccccc4)cs3)c(OCCN3CCNC3=O)c2)cc1CCCCN [Compound 10b, 4-(4-Ammoniobutyl)-3-methyl-1-(3-(2-(2-oxoimidazolidin-1-yl)ethoxy)-4-(4-phenethylthiazol-2-yl)phenyl)-1H-1,2,3-triazol-3-ium 2,2,2-trifluoroacetate trifluoromethanesulfonate]",12.9 ± 0.98,> 75,
"NCCCCc1cn(-c2ccc(-c3nc(-c4ccccc4)cs3)c(OCCN3CCNC3=O)c2)nn1 [Compound 8c, 1-(2-(5-(4-(4-aminobutyl)-1H-1,2,3-triazol-1-yl)-2-(4-phenylthiazol-2-yl)phenoxy)ethyl)imidazolidin-2-one 2,2,2 trifluoroacetate]",24 ± 1.69,29 ± 1.51,
"C[n+]1nn(-c2ccc(-c3nc(CCc4ccccc4)cs3)c(OCCC3CCNCC3)c2)cc1CCCCN [Compound 10k, Mono (4-(2-(5-(4-(4-ammoniobutyl)-3-methyl-1H-1,2,3-triazol-3-ium-1-yl)-2-(4-phenethylthiazol-2-yl)phenoxy)ethyl)piperidin-1-ium) mono(2,2,2-trifluoroacetate) mono(trifluoromethanesulfonate)]",3.35 ± 0.3,> 75,
"NCCCCc1cn(-c2ccc(-c3nc(CCc4ccccc4)cs3)c(OCCC3CCNCC3)c2)nn1 [Compound 8l, 4-(1-(4-(4-phenethylthiazol-2-yl)-3-(2-(piperidin-4-yl)ethoxy)phenyl)-1H-1,2,3-triazol-4-yl)butan-1-amine 2,2,2 trifluoroacetate]",5.78 ± 0.89,> 75,
"NCCCc1cn(-c2ccc(-c3nc(CCc4ccc(-c5ccccc5)cc4)cs3)c(OCCN3CCNC3=O)c2)nn1 [Compound 8o, 1-(2-(2-(4-(2-([1,1'-Biphenyl]-4-yl)ethyl)thiazol-2-yl)-5-(4-(3-aminopropyl)-1H-1,2,3-triazol-1-yl)phenoxy)ethyl)imidazolidin-2-one 2,2,2 trifluoroacetate]",21.8 ± 5.49,11.1 ± 0.44,
"NCCCCc1cn(-c2ccc(-c3nc(-c4ccccc4)c(-c4ccccc4)s3)c(OCCN3CCNC3=O)c2)nn1 [Compound 8p, 1-(2-(5-(4-(4-Aminobutyl)-1H-1,2,3-triazol-1-yl)-2-(4,5-diphenylthiazol-2-yl)phenoxy)ethyl)imidazolidin-2-one 2,2,2 trifluoroacetate]",6.07 ± 1.01,4.15 ± 1.92,
"CC(C)Oc1csc(-c2ccc(-n3cc(CCCCN)nn3)cc2OCCN2CCNC2=O)n1 [Compound 8a, 1-(2-(5-(4-(4-Aminobutyl)-1H-1,2,3-triazol-1-yl)-2-(4-isopropoxythiazol-2-yl)phenoxy)ethyl)imidazolidin-2-one 2,2,2 trifluoroacetate]",50.2 ± 2.37,> 75,
"COc1cc(-n2cc(CCCCN)nn2)ccc1-c1nc(CCc2ccccc2)cs1 [Compound 8m, 4-(1-(3-Methoxy-4-(4-phenethylthiazol-2-yl)phenyl)-1H-1,2,3-triazol-4-yl)butan-1-amine 2,2,2 trifluoroacetate]",,,IC50 (recombinant Li-TryR): 17.5 ± 2.91 µM; EC50 [1]: 9.56 ± 0.44 µM; EC50 [2]: 7.1 ± 0.9 µM; IC50 (Li-TryR dimeric form): 89.2 ± 29.6 µM
